Experimental data as given in patent US20230123334A1, “AMINO LIPID COMPOUND, PREPARATION METHOD THEREFOR, AND APPLICATION THEREOF” (SHENZHEN SHENXIN BIOTECHNOLOGY CO., LTD., priority 2020, published 2023).

Tested on: HEK293 cells
Assay: Preliminary screening as mRNA vectors, EGFP mRNA transfection of HEK293 cells
Assay type: cell-based
Settings: EGFP mRNA 50 ng per well, 96-well plates; percentage of GFP fluorescent cells relative to total number of cells (Hoechst)
How it was run: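 Screening format: EGFP mRNA transfection (50 ng/well) into HEK293 in 10% FBS-supplemented DMEM. Percent green fluorescent cells, normalised to Hoechst nuclear count, gave the value; Lipofectamine2000 was the reference transfectant.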

| Structure (SMILES) | Absolute mRNA transfection efficiency in HEK293 cells |
| --- | --- |
| CCCCCCCCCCCCCCCNc1nc(NCCN2CCCC2)nc(SCCCCCCCCCCCC)n1 [Compound D3S12N15] | 1.5% |
| CCCCCCCCCCCCCCCCNc1nc(NCCN2CCCC2)nc(SCCCCCCCCCCCC)n1 [Compound D3S12N16] | 1.9% |
| CCCCCCCCCCCCCCCCCCNc1nc(NCCN2CCCC2)nc(SCCCCCCCCCCCC)n1 [Compound D3S12N18] | 3.5% |
| CCCCCCCCCCCCCCSc1nc(NCCCCCC)nc(NCCN2CCCC2)n1 [Compound D3S14N6] | 66.7% |
| CCCCCCCCCCCCCCSc1nc(NCCCCCCC)nc(NCCN2CCCC2)n1 [Compound D3S14N7] | 64.2% |
| CCCCCCCCCCCCCCSc1nc(NCCCCCCCC)nc(NCCN2CCCC2)n1 [Compound D3S14N8] | 55.2% |
| CCCCCCCCCCCCCCSc1nc(NCCCCCCCCC)nc(NCCN2CCCC2)n1 [Compound D3S14N9] | 51.6% |
| CCCCCCCCCCCCCCSc1nc(NCCCCCCCCCCC)nc(NCCN2CCCC2)n1 [Compound D3S14N11] | 30.9% |
| CCCCCCCCCCCCCCSc1nc(NCCCCCCCCCCCC)nc(NCCN2CCCC2)n1 [Compound D3S14N12] | 13.5% |
| CCCCCCCCCCCCCCSc1nc(NCCCCCCCCCCCCC)nc(NCCN2CCCC2)n1 [Compound D3S14N13] | 25.9% |
| CCCCCCCCCCCCCCCNc1nc(NCCN2CCCC2)nc(SCCCCCCCCCCCCCC)n1 [Compound D3S14N15] | 3.6% |
| CCCCCCCCCCCCCCCCNc1nc(NCCN2CCCC2)nc(SCCCCCCCCCCCCCC)n1 [Compound D3S14N16] | 1.2% |
| CCCCCCCCCCCCCCCCCCNc1nc(NCCN2CCCC2)nc(SCCCCCCCCCCCCCC)n1 [Compound D3S14N18] | 1.5% |
| CCCCCCCCCCCCCCCSc1nc(NCCCCCC)nc(NCCN2CCCC2)n1 [Compound D3S15N6] | 33.2% |
| CCCCCCCCCCCCCCCSc1nc(NCCCCCCC)nc(NCCN2CCCC2)n1 [Compound D3S15N7] | 80.8% |
| CCCCCCCCCCCCCCCSc1nc(NCCCCCCCC)nc(NCCN2CCCC2)n1 [Compound D3S15N8] | 17.0% |
| CCCCCCCCCCCCCCCSc1nc(NCCCCCCCCC)nc(NCCN2CCCC2)n1 [Compound D3S15N9] | 15.4% |
| CCCCCCCCCCCCCCCSc1nc(NCCCCCCCCCCC)nc(NCCN2CCCC2)n1 [Compound D3S15N11] | 23.2% |
| CCCCCCCCCCCCCCCSc1nc(NCCCCCCCCCCCC)nc(NCCN2CCCC2)n1 [Compound D3S15N12] | 7.5% |
| CCCCCCCCCCCCCCCSc1nc(NCCCCCCCCCCCCC)nc(NCCN2CCCC2)n1 [Compound D3S15N13] | 3.0% |
| CCCCCCCCCCCCCCCNc1nc(NCCN2CCCC2)nc(SCCCCCCCCCCCCCCC)n1 [Compound D3S15N15] | 2.6% |

| Structure (SMILES) | Absolute mRNA transfection efficiency in HEK293 cells |
| --- | --- |
| CCCCCCCCCCCCCCCCNc1nc(NCCN2CCCC2)nc(SCCCCCCCCCCCCCCC)n1 [Compound D3S15N16] | 7.6% |
| CCCCCCCCCCCCCCCCCCNc1nc(NCCN2CCCC2)nc(SCCCCCCCCCCCCCCC)n1 [Compound D3S15N18] | 8.5% |
| CCCCCCCCCCCCCCCCSc1nc(NCCCCCC)nc(NCCN2CCCC2)n1 [Compound D3S16N6] | 96.0% |
| CCCCCCCCCCCCCCCCSc1nc(NCCCCCCC)nc(NCCN2CCCC2)n1 [Compound D3S16N7] | 85.0% |
| CCCCCCCCCCCCCCCCSc1nc(NCCCCCCCC)nc(NCCN2CCCC2)n1 [Compound D3S16N8] | 97.7% |
| CCCCCCCCCCCCCCCCSc1nc(NCCCCCCCCC)nc(NCCN2CCCC2)n1 [Compound D3S16N9] | 92.8% |
| CCCCCCCCCCCCCCCCSc1nc(NCCCCCCCCCCC)nc(NCCN2CCCC2)n1 [Compound D3S16N11] | 73.8% |
| CCCCCCCCCCCCCCCCSc1nc(NCCCCCCCCCCCC)nc(NCCN2CCCC2)n1 [Compound D3S16N12] | 1.7% |
| CCCCCCCCCCCCCCCCSc1nc(NCCCCCCCCCCCCC)nc(NCCN2CCCC2)n1 [Compound D3S16N13] | 0.4% |
| CCCCCCCCCCCCCCCCSc1nc(NCCCCCCCCCCCCCCC)nc(NCCN2CCCC2)n1 [Compound D3S16N15] | 0.0% |
| CCCCCCCCCCCCCCCCNc1nc(NCCN2CCCC2)nc(SCCCCCCCCCCCCCCCC)n1 [Compound D3S16N16] | 1.1% |
| CCCCCCCCCCCCCCCCCCNc1nc(NCCN2CCCC2)nc(SCCCCCCCCCCCCCCCC)n1 [Compound D3S16N18] | 14.1% |
| CCCCCCCCCCCCCCCCCCSc1nc(NCCCCCC)nc(NCCN2CCCC2)n1 [Compound D3S18N6] | 58.9% |
| CCCCCCCCCCCCCCCCCCSc1nc(NCCCCCCC)nc(NCCN2CCCC2)n1 [Compound D3S18N7] | 97.2% |
| CCCCCCCCCCCCCCCCCCSc1nc(NCCCCCCCC)nc(NCCN2CCCC2)n1 [Compound D3S18N8] | 93.3% |
| CCCCCCCCCCCCCCCCCCSc1nc(NCCCCCCCCC)nc(NCCN2CCCC2)n1 [Compound D3S18N9] | 72.3% |
| CCCCCCCCCCCCCCCCCCSc1nc(NCCCCCCCCCCC)nc(NCCN2CCCC2)n1 [Compound D3S18N11] | 30.9% |
| CCCCCCCCCCCCCCCCCCSc1nc(NCCCCCCCCCCCC)nc(NCCN2CCCC2)n1 [Compound D3S18N12] | 5.2% |
| CCCCCCCCCCCCCCCCCCSc1nc(NCCCCCCCCCCCCC)nc(NCCN2CCCC2)n1 [Compound D3S18N13] | 1.0% |
| CCCCCCCCCCCCCCCCCCSc1nc(NCCCCCCCCCCCCCCC)nc(NCCN2CCCC2)n1 [Compound D3S18N15] | 0.1% |
| CCCCCCCCCCCCCCCCCCSc1nc(NCCCCCCCCCCCCCCCC)nc(NCCN2CCCC2)n1 [Compound D3S18N16] | 0.5% |

| Structure (SMILES) | Absolute mRNA transfection efficiency in HEK293 cells |
| --- | --- |
| CCCCCCCCCCCCCCCCCCNc1nc(NCCN2CCCC2)nc(SCCCCCCCCCCCCCCCCCC)n1 [Compound D3S18N18] | 0.1% |
| CCCCCCNc1nc(NCCN2CCCCC2)nc(SCCCCCC)n1 [Compound D4S6N6] | 0.3% |
| CCCCCCCNc1nc(NCCN2CCCCC2)nc(SCCCCCC)n1 [Compound D4S6N7] | 0.0% |
| CCCCCCCCNc1nc(NCCN2CCCCC2)nc(SCCCCCC)n1 [Compound D4S6N8] | 0.3% |
| CCCCCCCCCNc1nc(NCCN2CCCCC2)nc(SCCCCCC)n1 [Compound D4S6N9] | 1.1% |
| CCCCCCCCCCCNc1nc(NCCN2CCCCC2)nc(SCCCCCC)n1 [Compound D4S6N11] | 0.9% |
| CCCCCCCCCCCCNc1nc(NCCN2CCCCC2)nc(SCCCCCC)n1 [Compound D4S6N12] | 0.7% |
| CCCCCCCCCCCCCNc1nc(NCCN2CCCCC2)nc(SCCCCCC)n1 [Compound D4S6N13] | 2.1% |
| CCCCCCCCCCCCCCCNc1nc(NCCN2CCCCC2)nc(SCCCCCC)n1 [Compound D4S6N15] | 0.4% |
| CCCCCCCCCCCCCCCCNc1nc(NCCN2CCCCC2)nc(SCCCCCC)n1 [Compound D4S6N16] | 0.5% |
| CCCCCCCCCCCCCCCCCCNc1nc(NCCN2CCCCC2)nc(SCCCCCC)n1 [Compound D4S6N18] | 1.8% |
| CCCCCCSc1nc(NCCN2CCCCC2)nc(SCCCCCC)n1 [Compound D4S6S6] | 0.9% |
| CCCCCCCSc1nc(NCCN2CCCCC2)nc(SCCCCCC)n1 [Compound D4S6S7] | 1.2% |
| CCCCCCCCSc1nc(NCCN2CCCCC2)nc(SCCCCCC)n1 [Compound D4S6S8] | 0.5% |
| CCCCCCCCCSc1nc(NCCN2CCCCC2)nc(SCCCCCC)n1 [Compound D4S6S9] | 0.7% |
| CCCCCCCCCCSc1nc(NCCN2CCCCC2)nc(SCCCCCC)n1 [Compound D4S6S10] | 0.3% |
| CCCCCCCCCCCCSc1nc(NCCN2CCCCC2)nc(SCCCCCC)n1 [Compound D4S6S12] | 0.2% |
| CCCCCCCCCCCCCCSc1nc(NCCN2CCCCC2)nc(SCCCCCC)n1 [Compound D4S6S14] | 5.3% |
| CCCCCCCCCCCCCCCSc1nc(NCCN2CCCCC2)nc(SCCCCCC)n1 [Compound D4S6S15] | 2.0% |
